Patent US11707442B2, “Antibacterial and antifungal compounds” (The General Hospital Corporation, priority 2015, dated 2023)
Values after ≈ are worked out from the molar mass of the structure shown. Like-named read-outs stand apart in the source and are kept apart here.

Key:
A. baumannii = experiment: MIC, broth microdilution; assay type: cell-based, Acinetobacter baumannii
Description: (§1) Bacterial strains and growth conditions and persister isolation: methicillin-resistant S. aureus (MRSA) strain MW2 BAA-1707, vancomycin-resistant S. aureus strain VRS 1, 11 clinical S. aureus isolates, 8 clinical Enterococcus faecium isolates, Klebsiella pneumoniae WGLW2 (BEI Resources, Manassas, Va., USA), Acinetobacter baumannii ATCC 17978, Pseudomonas aeruginosa PA14, and Enterobacter aerogenes ATCC 13048 were used to test antimicrobial activity (See Table 1a). S. aureus and E. faecium strains were grown in tryptic soy broth (TSB) (BD, Franklin Lakes, N.J., USA) or brain-heart infusion (BHI) broth (BD, Franklin Lakes, N.J., USA), respectively at 37° C. at 225 rpm. K. pneumoniae, A. baumannii, P. aeruginosa, and E. aerogenes were grown in Luria Bertani (LB) broth (BD, Franklin Lakes, N.J., USA).
(§2) To test the bacterial MICs for compounds described herein, the total volume in each well was 100 μl of test compounds and bacterial cells in MH broth. […] The bacterial concentration was adjusted to an initial OD600 of 0.03. After incubation at 35° C. for 18 hrs, the absorbance was measured at 595 nm in accordance with CLSI document M07-A8. The MICs of antibiotics were determined by the standard microdilution method recommended by the Clinical and Laboratory Standards Institute.

P. aeruginosa = experiment: MIC, broth microdilution; assay type: cell-based, Pseudomonas aeruginosa
Description: as §1, §2

S. aureus = experiment: Minimal inhibitory concentration (MIC), broth microdilution; assay type: cell-based, Staphylococcus aureus
Description: as §1, §2

E. aerogenes ATCC 13048 = experiment: MIC, broth microdilution; assay type: cell-based, Enterobacter aerogenes
Description: as §1, §2

[1] = tested on: S. aureus MW2 (MRSA) in neutropenic mouse thigh; details: previous study (Conlon 2013); cited from earlier work
K. pneumonia WGLW2 = experiment: MIC, broth microdilution; assay type: cell-based, Klebsiella pneumoniae
Description: as §1, §2

E. faecium = experiment: MIC, broth microdilution; assay type: cell-based, Enterococcus faecium; details: for MIC: Enterococcus faecium
Description: as §1, §2

[2] = tested on: S. aureus persister cells (stationary phase); experiment: Persister killing assay; assay type: cell-based, Staphylococcus aureus; details: 4 μg/ml CD437 or CD1530 or 10 μg/ml gentamicin alone
Description: Persister killing assay. […] Persister cells of these 13 S. aureus strains were developed by growing cultures overnight to stationary phase at 37° C. at 225 rpm. The overnight cultures were washed three times with PBS and diluted to ˜10^7 CFU/ml with the same buffer, which is the same concentration as used in the killing kinetics assay described herein. 1 ml of the persister suspension containing appropriate concentrations of antibiotics was added to the wells of a 2 ml deep well assay block (Corning Costar 3960) and incubated at 37° C., with shaking at 225 rpm. At specific times, 50 μl samples were removed, serially diluted and spot-plated on TSA plates to enumerate the number of live cells. These experiments were conducted in triplicate.

CN[C@H](CC(C)C)C(=O)N[C@H]1C(=O)N[C@@H](CC(N)=O)C(=O)N[C@H]2C(=O)N[C@H]3C(=O)N[C@H](C(=O)N[C@H](C(=O)O)c4cc(O)cc(O)c4-c4cc3ccc4O)[C@H](O)c3ccc(c(Cl)c3)Oc3cc2cc(c3O[C@@H]2O[C@H](CO)[C@@H](O)[C@H](O)[C@H]2O[C@H]2C[C@](C)(N)[C@H](O)[C@H](C)O2)Oc2ccc(cc2Cl)[C@H]1O [Vancomycin, vancomycin] showed an MIC (A. baumannii; Acinetobacter baumannii, ATCC17978, read-out: Minimum inhibitory concentration) greater than 64 µg/mL, an MIC (P. aeruginosa; Pseudomonas aeruginosa, PA14, read-out: Minimum inhibitory concentration) greater than 64 µg/mL and an MIC (S. aureus; Staphylococcus aureus, S. aureus MW2 mutant SP1-8 (graS)) of 0.5 µg/mL (≈ 0.345 µM). For the same compound, the MIC (S. aureus; Staphylococcus aureus, S. aureus MW2 mutant SP1-48 (graS, manA)) was 0.5 µg/mL (≈ 0.345 µM), the MIC (S. aureus; Staphylococcus aureus, S. aureus MW2 mutant SP1-74 (graS, manA, MW2474)) was 0.5 µg/mL (≈ 0.345 µM) and the MIC (S. aureus; Staphylococcus aureus, S. aureus MW2 mutant SP1-100 (graS, manA, MW2474)) was 0.5 µg/mL (≈ 0.345 µM). It also gave an MIC (S. aureus; Staphylococcus aureus, S. aureus MW2 mutant SP2-13 (yjbH)) of 1 µg/mL (≈ 0.69 µM), an MIC (S. aureus; Staphylococcus aureus, S. aureus MW2 mutant SP2-52 (yjbH, dltB)) of 0.5 µg/mL (≈ 0.345 µM) and an MIC (S. aureus; Staphylococcus aureus, S. aureus MW2 mutant SP2-59 (yjbH, dltB, manA)) of 0.5 µg/mL (≈ 0.345 µM). It also gave an MIC (S. aureus; Staphylococcus aureus, S. aureus MW2 mutant SP2-65 (yjbH, dltB, manA, MW1685)) of 0.5 µg/mL (≈ 0.345 µM), an MIC (S. aureus; Staphylococcus aureus, S. aureus MW2 mutant SP2-100 (yjbH dltB, manA, MW1685)) of 0.5 µg/mL (≈ 0.345 µM) and an MIC (S. aureus; Staphylococcus aureus, S. aureus MW2 serial passage culture SP1-1 (no mutated gene)) of 1 µg/mL (≈ 0.69 µM). It also gave an MIC (S. aureus; Staphylococcus aureus, S. aureus MW2 serial passage culture SP2-1 (no mutated gene)) of 1 µg/mL (≈ 0.69 µM), an MIC (S. aureus; Staphylococcus aureus, read-out: Drug MIC, Staphylococcus aureus clinical isolate BF1 (Table 5)) of 2 µg/mL (≈ 1.38 µM) and an MIC (S. aureus; Staphylococcus aureus, read-out: Drug MIC, Staphylococcus aureus clinical isolate BF2 (Table 5)) of 2 µg/mL (≈ 1.38 µM). The MIC (S. aureus; Staphylococcus aureus, read-out: Drug MIC, Staphylococcus aureus clinical isolate BF3 (Table 5)) was 4 µg/mL (≈ 2.76 µM), the MIC (S. aureus; Staphylococcus aureus, read-out: Drug MIC, Staphylococcus aureus clinical isolate BF4 (Table 5)) was 2 µg/mL (≈ 1.38 µM) and the MIC (S. aureus; Staphylococcus aureus, read-out: Drug MIC, Staphylococcus aureus clinical isolate BF5 (Table 5)) was 2 µg/mL (≈ 1.38 µM). For the same compound, the MIC (S. aureus; Staphylococcus aureus, read-out: Drug MIC, Staphylococcus aureus clinical isolate BF6 (Table 5)) was 2 µg/mL (≈ 1.38 µM), the MIC (S. aureus; Staphylococcus aureus, read-out: Drug MIC, Staphylococcus aureus clinical isolate BF7 (Table 5)) was 2 µg/mL (≈ 1.38 µM) and the MIC (S. aureus; Staphylococcus aureus, read-out: Drug MIC, Staphylococcus aureus clinical isolate BF8 (Table 5)) was 2 µg/mL (≈ 1.38 µM). For the same compound, the MIC (S. aureus; Staphylococcus aureus, read-out: Drug MIC, Staphylococcus aureus clinical isolate BF9 (Table 5)) was 2 µg/mL (≈ 1.38 µM), the MIC (S. aureus; Staphylococcus aureus, read-out: Drug MIC, Staphylococcus aureus clinical isolate BF10 (Table 5)) was 2 µg/mL (≈ 1.38 µM) and the MIC (S. aureus; Staphylococcus aureus, read-out: Drug MIC, Staphylococcus aureus clinical isolate BF11 (Table 5)) was 2 µg/mL (≈ 1.38 µM). It also gave an MIC (S. aureus; Staphylococcus aureus, read-out: Minimum inhibitory concentration, S. aureus BF1) of 1 µg/mL (≈ 0.69 µM), an MIC (S. aureus; Staphylococcus aureus, read-out: Minimum inhibitory concentration, S. aureus BF2) of 1 µg/mL (≈ 0.69 µM) and an MIC (S. aureus; Staphylococcus aureus, read-out: Minimum inhibitory concentration, S. aureus BF3) of 1 µg/mL (≈ 0.69 µM). The MIC (S. aureus; Staphylococcus aureus, read-out: Minimum inhibitory concentration, S. aureus BF4) was 0.5 µg/mL (≈ 0.345 µM), the MIC (S. aureus; Staphylococcus aureus, read-out: Minimum inhibitory concentration, S. aureus BF5) was 0.5 µg/mL (≈ 0.345 µM) and the MIC (S. aureus; Staphylococcus aureus, read-out: Minimum inhibitory concentration, S. aureus BF6) was 0.5 µg/mL (≈ 0.345 µM). For the same compound, the MIC (S. aureus; Staphylococcus aureus, read-out: Minimum inhibitory concentration, S. aureus BF7) was 0.5 µg/mL (≈ 0.345 µM), the MIC (S. aureus; Staphylococcus aureus, read-out: Minimum inhibitory concentration, S. aureus BF8) was 0.5 µg/mL (≈ 0.345 µM) and the MIC (S. aureus; Staphylococcus aureus, read-out: Minimum inhibitory concentration, S. aureus BF9) was 0.5 µg/mL (≈ 0.345 µM). For the same compound, the MIC (S. aureus; Staphylococcus aureus, read-out: Minimum inhibitory concentration, S. aureus BF10) was 0.5 µg/mL (≈ 0.345 µM), the MIC (S. aureus; Staphylococcus aureus, read-out: Minimum inhibitory concentration, S. aureus BF11) was 1 µg/mL (≈ 0.69 µM) and the MIC (S. aureus; Staphylococcus aureus, read-out: Minimum inhibitory concentration, S. aureus MW2) was 1 µg/mL (≈ 0.69 µM). For the same compound, the MIC (S. aureus; Staphylococcus aureus, read-out: Minimum inhibitory concentration, S. aureus VRS1) was greater than 64 µg/mL, the MIC (E. aerogenes ATCC 13048; Klebsiella aerogenes, ATCC13048, read-out: Minimum inhibitory concentration) was greater than 64 µg/mL and the “reduction of MRSA CFUs in the deep-seated mouse thigh infection model” value [1] was “unable to significantly reduce”. For the same compound, the MIC (K. pneumonia WGLW2; Klebsiella pneumoniae, WGLW2, read-out: Minimum inhibitory concentration) was greater than 64 µg/mL, the MIC (E. faecium; read-out: Minimum inhibitory concentration, E. faecium C68) was 64 µg/mL (≈ 44.2 µM) and the MIC (E. faecium; read-out: Minimum inhibitory concentration, E. faecium D14) was 2 µg/mL (≈ 1.38 µM). For the same compound, the MIC (E. faecium; read-out: Minimum inhibitory concentration, E. faecium D24) was 1 µg/mL (≈ 0.69 µM), the MIC (E. faecium; read-out: Minimum inhibitory concentration, E. faecium D25) was 1 µg/mL (≈ 0.69 µM) and the MIC (E. faecium; read-out: Minimum inhibitory concentration, E. faecium D29) was 2 µg/mL (≈ 1.38 µM). It also gave an MIC (E. faecium; read-out: Minimum inhibitory concentration, E. faecium E007) of 1 µg/mL (≈ 0.69 µM), an MIC (E. faecium; read-out: Minimum inhibitory concentration, E. faecium WB213) of 16 µg/mL (≈ 11 µM) and an MIC (E. faecium; read-out: Minimum inhibitory concentration, E. faecium WC176) of 64 µg/mL (≈ 44.2 µM).
In the case of gentamicin, the Minimum inhibitory concentration (A. baumannii; A. baumannii ATCC 17978) is reported as 1 µg/mL, the Minimum inhibitory concentration (P. aeruginosa; P. aeruginosa PA14) is reported as 2 µg/mL and the Minimum inhibitory concentration (S. aureus; S. aureus BF1) is reported as 1 µg/mL. For the same compound, the Minimum inhibitory concentration (S. aureus; S. aureus BF2) was 1 µg/mL, the Minimum inhibitory concentration (S. aureus; S. aureus BF3) was 1 µg/mL and the Minimum inhibitory concentration (S. aureus; S. aureus BF4) was 1 µg/mL. It also gave a Minimum inhibitory concentration (S. aureus; S. aureus BF5) of 1 µg/mL, a Minimum inhibitory concentration (S. aureus; S. aureus BF6) of 1 µg/mL and a Minimum inhibitory concentration (S. aureus; S. aureus BF7) of 1 µg/mL. The Minimum inhibitory concentration (S. aureus; S. aureus BF8) was 1 µg/mL, the Minimum inhibitory concentration (S. aureus; S. aureus BF9) was 1 µg/mL and the Minimum inhibitory concentration (S. aureus; S. aureus BF10) was 1 µg/mL. It also gave a Minimum inhibitory concentration (S. aureus; S. aureus BF11) of 1 µg/mL, a Minimum inhibitory concentration (S. aureus; S. aureus MW2) of 1 µg/mL and an MIC (S. aureus; S. aureus MW2 mutant SP1-8 (graS)) of 0.25 µg/mL. For the same compound, the MIC (S. aureus; S. aureus MW2 mutant SP1-48 (graS, manA)) was 0.25 µg/mL, the MIC (S. aureus; S. aureus MW2 mutant SP1-74 (graS, manA, MW2474)) was 0.25 µg/mL and the MIC (S. aureus; S. aureus MW2 mutant SP1-100 (graS, manA, MW2474)) was 0.25 µg/mL. The MIC (S. aureus; S. aureus MW2 mutant SP2-13 (yjbH)) was 1 µg/mL, the MIC (S. aureus; S. aureus MW2 mutant SP2-52 (yjbH, dltB)) was 0.25 µg/mL and the MIC (S. aureus; S. aureus MW2 mutant SP2-59 (yjbH, dltB, manA)) was 0.25 µg/mL. It also gave an MIC (S. aureus; S. aureus MW2 mutant SP2-65 (yjbH, dltB, manA, MW1685)) of 0.25 µg/mL, an MIC (S. aureus; S. aureus MW2 mutant SP2-100 (yjbH dltB, manA, MW1685)) of 0.25 µg/mL and an MIC (S. aureus; S. aureus MW2 serial passage culture SP1-1 (no mutated gene)) of 1 µg/mL. The MIC (S. aureus; S. aureus MW2 serial passage culture SP2-1 (no mutated gene)) was 1 µg/mL, the Minimum inhibitory concentration (S. aureus; S. aureus VRS1) was greater than 64 µg/mL and the “viability of MW2 persister cells, single agent” value [2] was “did not significantly affect”. For the same compound, the Minimum inhibitory concentration (E. aerogenes ATCC 13048; E. aerogenes ATCC 13048) was 2 µg/mL, the “reduction of MRSA CFUs in the deep-seated mouse thigh infection model” value [1] was “unable to significantly reduce” and the Minimum inhibitory concentration (K. pneumonia WGLW2; K. pneumonia WGLW2) was 1 µg/mL. It also gave a Minimum inhibitory concentration (E. faecium; E. faecium C68) greater than 64 µg/mL, a Minimum inhibitory concentration (E. faecium; E. faecium D14) of 32 µg/mL and a Minimum inhibitory concentration (E. faecium; E. faecium D24) greater than 64 µg/mL. It also gave a Minimum inhibitory concentration (E. faecium; E. faecium D25) of 32 µg/mL, a Minimum inhibitory concentration (E. faecium; E. faecium D29) of 64 µg/mL and a Minimum inhibitory concentration (E. faecium; E. faecium E007) greater than 64 µg/mL. The Minimum inhibitory concentration (E. faecium; E. faecium WB213) was 32 µg/mL and the Minimum inhibitory concentration (E. faecium; E. faecium WC176) was 64 µg/mL.
